Test system: B-16 melanoma cells
Details: mouse, 5 days
Description: If the culture system includes a substance capable of inhibiting the melanin-production during the proliferation, the darkening of the cells is suppressed, while the whitening thereof is promoted. Thus, the melanin-production-inhibitory function can be evaluated by comparing the degree of darkening of cells observed when any sample is not added with the degree of whitening of cells observed when the sample is added. In this connection, some of substances may be toxic to the B-16 melanoma cells. To evaluate this cytotoxicity, the cell-survival rate observed when a sample is not added is compared with that observed for the system free of any sample. The melanin-production-inhibitory function is evaluated using the cell-whitening degree and the cell-survival rate in combination.
Cytotoxicity Index=C/D <Formula 4>
In this respect, the term “cell-survival rate” herein used is defined by the following <Formula 5>:
Cell-Survival Rate(%)=(E/F)×100 <Formula 5>
E: Viable cell count observed for the system to which a sample is added.
F: Number of cells observed for the system free of any added test sample. […]
The rate of cell-survival can be calculated according to the aforementioned relation: <Formula 5>.

With `OC[C@H]1O[C@@H](Oc2ccc(O)cc2)[C@H](O)[C@@H](O)[C@@H]1O` [arbutin] the “concentration at N.D. (rate of cell survival not more than 10%)” value was 500 ppm.

Source: patent US6682763B2, “Skin-beautifying agent, anti-aging agent for the skin, whitening agent and external agent for the skin” (The Nisshin Oil Mills, Ltd., priority 1999, dated 2004)
